Test results as given in patent publication US20260327232A1, “Heteroaryl Compounds as Ligand Directed Degraders of IRAK4” (Celgene Corporation, priority 2023, published 2026).
pEC50, pIC50: −log10 of the molar value. Counter-ions that a name gives are not always drawn.

What was measured:
[1] = molecular target: T1, IRAK4 (Homo sapiens, UniProt Q9NWZ3); assay: IRAK4 PhosphoSens Biochemical Assay (BIOCHEM); settings: 200 μM ATP, 10 μM peptide substrate AQT0326, 1 nM IRAK4, room temperature, 240 minutes
T1 sequence (Q9NWZ3 1-460): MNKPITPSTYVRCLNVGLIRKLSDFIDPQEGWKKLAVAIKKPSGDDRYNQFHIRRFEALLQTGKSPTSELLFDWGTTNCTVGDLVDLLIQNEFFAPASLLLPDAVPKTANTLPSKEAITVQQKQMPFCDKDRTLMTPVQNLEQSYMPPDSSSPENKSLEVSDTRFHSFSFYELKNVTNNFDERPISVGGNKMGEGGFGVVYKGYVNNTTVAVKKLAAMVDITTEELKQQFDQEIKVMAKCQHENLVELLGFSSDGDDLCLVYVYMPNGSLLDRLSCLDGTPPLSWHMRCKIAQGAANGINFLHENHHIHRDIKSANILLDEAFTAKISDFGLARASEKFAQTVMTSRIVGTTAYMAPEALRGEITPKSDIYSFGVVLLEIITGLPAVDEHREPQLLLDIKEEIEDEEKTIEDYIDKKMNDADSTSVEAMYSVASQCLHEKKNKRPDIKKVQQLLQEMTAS
Experimental: The PhosphoSens® biochemical assay was performed as described by the vendor (AssayQuant Technologies Inc. Marlborough, MA). A 1.25× stock solution of IRAK4 (PV4002, ThermoFisher Scientific, Waltham, MA) and a 5× stock solution of ATP and Sox conjugated peptide substrate, AQT0326 (CSKS-AQT0326B, AssayQuant Technologies), were prepared in 1× kinase reaction buffer consisting of 50 mM HEPES, pH 7.5, 0.01% Brij-35, 0.5 mM EGTA, 20 mM MgCl2 and 1 mM DTT. 10 μL of the ATP and substrate solution mix, for a final concentration of 200 μM ATP and 10 μM peptide substrate, was added to a Coming 3574 384-well, white, non-binding surface microtiter plate containing 0.5 μL of serially diluted test compounds prepared in DMSO. The reactions were started with the addition of 40 μL of the enzyme solution, for a final IRAK4 concentration of 1 nM, and monitored every 71 seconds for 240 minutes at λEX 360/λEM 485 in a BioTek Synergy H4 plate reader (Agilent Technologies, Santa Clara, CA) at room temperature. The initial linear portions of the progress curves were fit according to a linear equation to yield the slopes and converted to % inhibition based on a value of 100% activity for the no inhibitor treated control. IC50 values of each compound were obtained by fitting the % inhibition-compound concentration curves using Dotmatics software (Dotmatics, Bishops Stortford, Hertfordshire, England).

[2] = molecular target: T1, IRAK4; assay: ALE THP1 HTRF (IRAK4 in THP1 cell lysates, Homogeneous Time Resolved Fluorescence); format: cell-based; design: THP1 Homogeneous Time Resolved Fluorescence (ALE THP1 HTRF) Procedure; endogenous in cells; host or cells: THP1; settings: THP1 cells
Experimental: Cell culture media was prepared in a tissue culture hood in a sterile environment by adding 10% FBS and 1% Penicillin Streptomycin to 500 mL no phenol red RPMI 1640 media. The media was filtered through a Nalgene Bottle Top Filter and stored at 4° C.
For Homogenous Time Resolved Fluorescence (HTRF) assays, a Cisbio HTRF kit was used, which included: Lysis Buffer #1 4×, Blocking Reagent #3 100×, 20× Antibody 1 (Anti-IRAK4 d2), 20× Antibody 2 (Anti-IRAK4 k), and Detection Buffer.
4× Lysis Buffer was stored at 4° C. For use as 1× Lysis buffer, the 4× solution was diluted with de-ionized water (distilled water, Gibco Cat. #15230279) and 100× Blocking Reagent in a 1:3:0.04 volume ratio.
20× Antibody Solution aliquots were stored in −80° C. and the Detection Buffer was stored in 4° C. For use as a 1× Antibody Solution, the 20× Antibody Solution aliquot was diluted with Detection Buffer in a 1:19 volume ratio.
Cells were lysed at room temperature for 45 min with shaking. A BCA protein assay was performed and normalization was conducted to the desired total protein concentration with 1× lysis buffer. Next, 1× Antibody Solutions were prepared by adding 380 μL Detection Buffer to 20 μL 20× Antibody Solution aliquots and mixing well. 1× Antibody Solutions were combined 1:1 and briefly vortexed. For control wells, 20 μL 1× anti IRAK4-k Antibody Solution was saved. The 384-well plate (ProxiPlate-384 Plus, Perkin Elmer Cat. #6008289) was loaded by adding 4 μL of the mixed Antibody Solution to empty wells using a single channel repeater. Using a multi-channel repeater, 16 μL lysate was added per well, and any bubbles that were formed were popped with 20 μL pipette tips and Kimwipe edges. In column 10, triplicates of each control was prepared. In wells A10, B10, and C10, buffer control was prepared by adding 16 μL Lysis Buffer and 4 μL Detection Buffer. In wells D10, E10, and F10, cryptate control was prepared by adding 16 μL Lysis Buffer, 2 μL Detection Buffer, and 2 μL 1× anti IRAK4-k Antibody Solution. In wells G10, H10, and 110, a negative control was prepared by adding 16 μL Lysis Buffer and 4 μL mixed Antibody Solution. The plate was sealed with a clear seal and covered with an aluminum lid. The plate was spun down at 800 g for 5 min and incubated in the dark at room temperature overnight. The next day, the plate was spun down at 800 g for 5 min. The samples were analyzed by a plate reader (Envision, PerkinElmer) using the Desnor 384 HTRF program.

[3] = molecular target: T1, IRAK4; assay: IRAK4 PhosphoSens Biochemical Assay (BIOCHEM); settings: 200 μM ATP, 10 μM peptide substrate AQT0326, 1 nM IRAK4, room temperature, 240 minutes; remark: listed apart in the source

| Structure (SMILES) | pIC50 [1] | pEC50 [2] | pIC50 [3] |
| --- | --- | --- | --- |
| Cn1nc(C2CCC(=O)NC2=O)c2cccc(NC3CCN(CC4CCC(n5cc(NC(=O)c6cnn7ccc(N8C[C@H](N)C[C@@H](F)C8)nc67)c(C(F)F)n5)CC4)CC3)c21 (some centres unmarked) [P-3] | > 9.30 | 8.10 | – |
| CN(CC1CCC(n2cc(NC(=O)c3cnn4ccc(N5Cc6cnn(C)c6C5)nc34)c(C(F)F)n2)CC1)C1CCN(c2ccc3c(C4CCC(=O)NC4=O)nn(C)c3c2)CC1 (centres unmarked) [P-49] | 9.10 | < 5.00 | – |
| CN(c1cccc2c(C3CCC(=O)NC3=O)nn(C)c12)C1CCN(CCC2CCC(n3cc(NC(=O)c4cnn5ccc(N6CCOCC6)nc45)c(C(F)F)n3)CC2)CC1 (centres unmarked) [P-39] | > 9.30 | < 5.00 | – |
| CN(CC1CCC(n2cc(NC(=O)c3cnn4ccc(N5C[C@H]6CC[C@@H](C5)O6)nc34)c(C(F)F)n2)CC1)C1CCN(c2ccc3c(C4CCC(=O)NC4=O)nn(C)c3c2)CC1 (some centres unmarked) [P-42] | > 9.30 | < 5.00 | – |
| Cn1nc(C2CCC(=O)NC2=O)c2ccc(N[C@H]3CCN(CC4CCC(n5cc(NC(=O)c6cnn7ccc(N8C[C@H](N)C[C@@H](F)C8)nc67)c(C(F)F)n5)CC4)C[C@@H]3F)cc21 (some centres unmarked) [P-25] | > 9.30 | 8.10 | – |
| CN(CC1CCC(n2cc(NC(=O)c3cnn4ccc(N5C[C@H](N)C[C@@H](F)C5)nc34)c(C(F)F)n2)CC1)C1CCN(c2cccc3c(C4CCC(=O)NC4=O)nn(C)c23)CC1 (stereo partly drawn) [P-30, N-[3-(difluoromethyl)-1-[4-[[[1-[3-(2,6-dioxo-3-piperidyl)-1-methyl-indazol-7-yl]-4-piperidyl]-methyl-amino]methyl]cyclohexyl]pyrazol-4-yl]-5-[(3R,5R)-3-amino-5-fluoro-1-piperidyl]pyrazolo[1,5-a]pyrimidine-3-carboxamide] | > 9.30 | 7.85 | – |
| Cn1nc(C2CCC(=O)NC2=O)c2ccc(N[C@@H]3CCN(CC4CCC(n5cc(NC(=O)c6cnn7ccc(N8C[C@H](N)C[C@@H](F)C8)nc67)c(C(F)F)n5)CC4)C[C@@H]3F)cc21 (some centres unmarked) [P-24] | > 9.30 | 8.40 | – |
| CN(CC1CCC(n2cc(NC(=O)c3cnn4ccc(N5C[C@H](N)C[C@@H](F)C5)nc34)c(C(F)F)n2)CC1)C1CCN(c2ccc3c(C4CCC(=O)NC4=O)nn(C)c3c2)CC1 (some centres unmarked) [P-28, N-[3-(Difluoromethyl)-1-[4-[[[1-[3-(2,6-dioxo-3-piperidyl)-1-methyl-indazol-6-yl]-4-piperidyl]-methyl-amino]methyl]cyclohexyl]pyrazol-4-yl]-5-[(3r,5r)-3-amino-5-fluoro-1-piperidyl]pyrazolo[1,5-a]pyrimidine-3-carboxamide] | > 9.30 | 8.30 | – |
| Cn1nc(C2CCC(=O)NC2=O)c2ccc(NC3CCN(CC4CCC(n5cc(NC(=O)c6cnn7ccc(N8CC[C@@H](F)[C@@H](N)C8)nc67)c(C(F)F)n5)CC4)CC3)cc21 (some centres unmarked) [P-21] | > 9.30 | < 5.00 | – |
| Cn1nc(C2CCC(=O)NC2=O)c2cccc(NC3CCN(CCC4CCC(n5cc(NC(=O)c6cnn7ccc(N8C[C@H](N)C[C@@H](F)C8)nc67)c(C(F)F)n5)CC4)CC3)c21 (stereo partly drawn) [P-7, N-[3-(difluoromethyl)-1-[4-[2-[4-[[3-(2,6-dioxo-3-piperidyl)-1-methyl-indazol-7-yl]amino]-1-piperidyl]ethyl]cyclohexyl]pyrazol-4-yl]-5-[(3R,5R)-3-amino-5-fluoro-1-piperidyl]pyrazolo[1,5-a]pyrimidine-3-carboxamide bis-HCl salt] | – | 7.92 | > 9.30 |
| Cn1nc(C2CCC(=O)NC2=O)c2ccc(NC3CN(C[C@H]4CC[C@H](n5cc(NC(=O)c6cnn7ccc(N8C[C@H](N)C[C@@H](F)C8)nc67)c(C(F)F)n5)CC4)C3)cc21 (some centres unmarked) [P-13] | – | 9.00 | > 9.30 |
| C[C@@H]1CN(CCN2CCC(n3cc(NC(=O)c4cnn5ccc(N6C[C@H](N)C[C@@H](F)C6)nc45)c(C(F)F)n3)CC2)CCN1c1ccc2c(C3CCC(=O)NC3=O)nn(C)c2c1 (stereo partly drawn) [P-37, 5-((3R,5R)-3-amino-5-fluoropiperidin-1-yl)-N-(3-(difluoromethyl)-1-(1-(2-((3R)-4-(3-(2,6-dioxopiperidin-3-yl)-1-methyl-1H-indazol-6-yl)-3-methylpiperazin-1-yl)ethyl)piperidin-4-yl)-1H-pyrazol-4-yl)pyrazolo[1,5-a]pyrimidine-3-carboxamide] | – | 8.30 | > 9.30 |
| C[C@H]1CN(CCN2CCC(n3cc(NC(=O)c4cnn5ccc(N6C[C@H](N)C[C@@H](F)C6)nc45)c(C(F)F)n3)CC2)CCN1c1ccc2c(C3CCC(=O)NC3=O)nn(C)c2c1 (some centres unmarked) [P-36] | – | 8.30 | > 9.30 |
| Cn1nc(C2CCC(=O)NC2=O)c2ccc(C(=O)N3CCN(C[C@H]4CC[C@H](n5cc(NC(=O)c6cnn7ccc(N8C[C@H](N)C[C@@H](F)C8)nc67)c(C(F)F)n5)CC4)CC3)cc21 (some centres unmarked) [P-17] | – | 9.00 | > 9.30 |
| CN(C[C@H]1CC[C@H](n2cc(NC(=O)c3cnn4ccc(NCc5ccccn5)nc34)c(C(F)F)n2)CC1)C1CCN(c2ccc3c(C4CCC(=O)NC4=O)nn(C)c3c2)CC1 (some centres unmarked) [P-44] | – | < 5.00 | 8.14 |
| Cn1nc(C2CCC(=O)NC2=O)c2ccc(N[C@H]3CCN(C[C@H]4CC[C@H](n5cc(NC(=O)c6cnn7ccc(N8C[C@H](N)C[C@@H](F)C8)nc67)c(C(F)F)n5)CC4)C[C@H]3F)cc21 (some centres unmarked) [P-23] | – | 8.40 | > 9.30 |
| Cn1nc(C2CCC(=O)NC2=O)c2ccc(N3CCC(NC[C@H]4CC[C@H](n5cc(NC(=O)c6cnn7ccc(N8C[C@H](N)C[C@@H](F)C8)nc67)c(C(F)F)n5)CC4)CC3)cc21 (stereo partly drawn) [P-5, 5-((3R,5R)-3-Amino-5-fluoropiperidin-1-yl)-N-(3-(difluoromethyl)-1-((1r,4r)-4-(((1-(3-(2,6-dioxopiperidin-3-yl)-1-methyl-1H-indazol-6-yl)piperidin-4-yl)amino)methyl)cyclohexyl)-1H-pyrazol-4-yl)pyrazolo[1,5-a]pyrimidine-3-carboxamide dihydrochloride] | – | 8.30 | > 9.30 |
| Cn1nc(C2CCC(=O)NC2=O)c2ccc(NC3CCN(C[C@H]4CC[C@H](n5cc(NC(=O)c6cnn7ccc(N8C[C@H](N)CC(F)(F)C8)nc67)c(C(F)F)n5)CC4)CC3)cc21 (some centres unmarked) [P-20] | – | 8.30 | > 9.30 |
| Cn1nc(C2CCC(=O)NC2=O)c2ccc(N3CCN(C[C@H]4CC[C@H](n5cc(NC(=O)c6cnn7ccc(N8C[C@H](N)C[C@@H](F)C8)nc67)c(C(F)F)n5)CC4)CC3)cc21 (some centres unmarked) [P-14] | – | < 5.00 | > 9.30 |
